Measurements: the NIST ThermoML archive (doi:10.1016/j.tca.2018.04.007)

Tests used:
[1] = refractive index (Na D-line) (dimensionless); details: 101.33 kPa, Liquid, Standard Abbe refractometry
[2] = 101.33 kPa, Liquid; for viscosity: Capillary tube (Ostwald / Ubbelohde) method; for mass density: Vibrating tube method; for thermal conductivity: transient hot wire; for electrical conductivity: Direct current cell with electrodes

CCCC[P+](C)(CCCC)CCCC.O=S(=O)([N-]S(=O)(=O)C(F)(F)F)C(F)(F)F
Details	electrical conductivity, [2] [S/m]	mass density, [2] [kg/m3]	refractive index, [1]	thermal conductivity, [2] [W/m/K]	viscosity, [2] [mPa·s]
283.15 K	–	1267.21	1.4403	0.126	616.7
293.15 K	0.0367	1258.68	1.4374	0.126	299.3
303.15 K	0.0743	1250.31	1.4344	0.125	156
313.15 K	0.123	1242.07	1.4314	0.122	87.7
323.15 K	0.187	1233.84	1.4285	0.123	54.7
333.15 K	0.279	1225.64	1.4255	0.122	38.4
343.15 K	0.405	1217.49	1.4228	0.121	27.5

CCCCn1cc[n+](C)c1.COS(=O)(=O)[O-] [1-butyl-3-methylimidazolium methyl sulfate]
Details	electrical conductivity, [2] [S/m]	mass density, [2] [kg/m3]	refractive index, [1]	thermal conductivity, [2] [W/m/K]	viscosity, [2] [mPa·s]
283.15 K	–	1218.78	1.4831	0.179	531.6
293.15 K	0.104	1211.96	1.4804	0.177	269.1
303.15 K	0.177	1205.33	1.4781	0.176	151.9
313.15 K	0.279	1198.79	1.4753	0.176	91.7
323.15 K	0.426	1192.26	1.4729	0.174	59.6
333.15 K	0.623	1185.76	1.4704	0.173	40.5
343.15 K	0.884	1179.31	1.4678	0.172	28.9

COS(=O)(=O)[O-].C[n+]1ccccc1 [1-methylpyridinium methylsulfate]
Details	electrical conductivity, [2] [S/m]	mass density, [2] [kg/m3]	refractive index, [1]	thermal conductivity, [2] [W/m/K]	viscosity, [2] [mPa·s]
283.15 K	–	1355	1.5164	0.205	199
293.15 K	0.287	1348.1	1.5139	0.205	113.5
303.15 K	0.45	1341.3	1.5113	0.204	69.2
313.15 K	0.683	1334.5	1.5088	0.204	46
323.15 K	0.986	1327.8	1.5063	0.203	32
333.15 K	1.36	1321.1	1.5039	0.202	23
343.15 K	1.75	1314.5	1.5013	0.201	17.3

OCC(O)CO [glycerol]
[2]
Details	thermal conductivity [W/m/K]
283.15 K	0.284
293.15 K	0.284
303.15 K	0.284
313.15 K	0.284
323.15 K	0.284
333.15 K	0.284

CCCC[P+](C)(CCCC)CCCC.[Cl-] [methyltributylphosphonium chloride]
Details	electrical conductivity, [2] [S/m]	mass density, [2] [kg/m3]	refractive index, [1]	thermal conductivity, [2] [W/m/K]	viscosity, [2] [mPa·s]
283.15 K	–	964.23	1.5053	–	–
293.15 K	0.00254	958.67	1.5037	0.159	13511
303.15 K	0.0059	953.44	1.4999	0.158	4692
313.15 K	0.0131	948.08	1.4972	0.157	1914
323.15 K	0.029	942.74	1.4952	0.156	859
333.15 K	0.052	937.42	1.4923	0.155	416.8
343.15 K	0.0941	932.12	1.4888	0.154	–

CCCC[P+](C)(CCCC)CCCC.COS(=O)(=O)[O-] [tributylmethylphosphonium methyl sulfate]
Details	electrical conductivity, [2] [S/m]	mass density, [2] [kg/m3]	refractive index, [1]	thermal conductivity, [2] [W/m/K]	viscosity, [2] [mPa·s]
283.15 K	–	1066.59	1.4782	–	–
293.15 K	0.00749	1060.4	1.4755	0.16	1434
303.15 K	0.0158	1054.25	1.4728	0.159	650.6
313.15 K	0.0278	1048.13	1.4702	0.159	339.2
323.15 K	0.0483	1042.02	1.4673	0.158	189.4
333.15 K	0.0882	1036.12	1.4647	0.157	113.9
343.15 K	0.139	1030.18	1.4619	0.157	72.4
